The series addresses DGAT2. The conditions noted are these: ASO.

“And” between values parts separate entries of the source, which are not always exact repeats. Equal values may be shown once. After the bases stand the sugars from the 5' end (letter, count) and the backbone: PS all phosphorothioate, else s phosphorothioate and o phosphodiester by linkage. Methylation of C is not given here. e = 2'-O-(2-methoxyethyl) (MOE); d = 2'-deoxy (DNA)

Where the note is “HepG2, 0.12 µM”, “GAGATGACCTGTAGCTGCTT (sugars e5 d10 e5, PS)” came in with a target mRNA inhibition of 34%.
As to “GATCTCAGTCACTGACTCAC (sugars e5 d10 e5, PS)”, the target mRNA inhibition was 57% (HepG2, 2.5 µM) and 91% (HepG2, 10 µM).
In turn, “CTGGACCCATCGGCCCCAGG (sugars e5 d10 e5, PS)” registered a target mRNA inhibition (HepG2, 0.12 µM) of 41%.
“TGGAGCTCAGAGACTCAGCC (sugars e2 d16 e2, PS)” yielded a target mRNA inhibition (HepG2, 0.12 µM) of 37%.
Take “AGGGTTCATGGATCCCC (sugars e3 d10 e4, PS)”: the target mRNA inhibition amounted to 46% (HepG2, 2.5 µM) and 76% (HepG2, 10 µM).
Under “HepG2, 0.12 µM”, “CTCAGAGACTCAGCCGCACC (sugars e3 d14 e3, PS)” yielded a target mRNA inhibition of 70%.
Regarding “ATCCTGCCAGAGTTATCCTC (sugars e5 d10 e5, PS)”, the target mRNA inhibition came to 86% (HepG2, 2.5 µM) and 77% (HepG2, 10 µM).
Regarding “TGCAATGTTGCCATCATACT (sugars e5 d10 e5, PS)”, the target mRNA inhibition was 65% and 49% (HepG2, 2.5 µM); 91% and 83% (HepG2, 10 µM).
In the case of “ATCCAATGCACCTTGTATTA (sugars e5 d10 e5, PS)”, the target mRNA inhibition reads like this: (HepG2, 2.5 µM) 57%; (HepG2, 10 µM) 93%.
“AGAGAGACAATGAGTAAGGG (sugars e5 d10 e5, PS)” had a target mRNA inhibition (HepG2, 2.5 µM) of 68% and a target mRNA inhibition (HepG2, 10 µM) of 79%.
As to “TTGCCACTCCCATTCTTTGA (sugars e5 d10 e5, PS)”, the target mRNA inhibition (HepG2, 0.12 µM) was 39% and 57%.
As for “CAGGTCTATGCTGCAGTCAT (sugars e5 d10 e5, PS)”, the target mRNA inhibition is, setting by setting: (HepG2, 2.5 µM) 53% and 45%; (HepG2, 10 µM) 89% and 82%.
With “TAACCACAGCGATAATCACA (sugars e5 d10 e5, PS)”, the target mRNA inhibition by setting is: (HepG2, 2.5 µM) 60%; (HepG2, 10 µM) 93%.
The corresponding values for “TGGCTTCCTCAGGGCCCACC (sugars e5 d10 e5, PS)” are 79% and 87%.
As for “TTCCTGGTGGTCAGCAGGTT (sugars e5 d10 e5, PS)”, the target mRNA inhibition (HepG2, 0.12 µM) stood at 61%.
For the sequence “GGACCCACTGGAGCACTGAG (sugars e5 d10 e5, PS)”, the target mRNA inhibition reads like this: (HepG2, 0.12 µM) 84%; (HepG2, 2.5 µM) 14%; (HepG2, 10 µM) 47%; (HepG2, 20 µM) 73%.
Take “AGTAGGGCACCAGCCCCCAG (sugars e5 d10 e5, PS)”: under “HepG2, 0.12 µM”, the target mRNA inhibition was 0%.
For the setting “HepG2, 0.12 µM”, “CCAACTCCTCCCCTTGGCAG (sugars e5 d10 e5, PS)” returned a target mRNA inhibition of 28%.
With “AATGCCAATGCCTAGGTCAC (sugars e5 d10 e5, PS)”, the target mRNA inhibition came to 72% (HepG2, 2.5 µM) and 90% (HepG2, 10 µM).
The sequence “TTACTCCACCTAGCTCATGG (sugars e5 d10 e5, PS)” registered a target mRNA inhibition (HepG2, 0.12 µM) of 6%.
On to “CAGCAGGTTGTGTGTCTTCA (sugars e3 d14 e3, PS)”, for which the target mRNA inhibition (HepG2, 0.12 µM) was 47%.
In turn, “TCAGAGACTCAGCCGCACCC (sugars e2 d13 e5, PS)” had a target mRNA inhibition (HepG2, 0.12 µM) of 56%.
Take “CTGCTTCTTGGGCATCTGCT (sugars e5 d10 e5, PS)”: the target mRNA inhibition (HepG2, 2.5 µM) was 76% and 73%; the target mRNA inhibition (HepG2, 10 µM) is 88% and 80%.
“TGTGTGTCTTCACCAGCTGG (sugars e5 d10 e5, PS)”: the target mRNA inhibition amounted to 55% (HepG2, 0.12 µM); 28% (HepG2, 2.5 µM); 73% (HepG2, 10 µM); 94% (HepG2, 20 µM).
Take “ACAGGACCCACTGGAGCACT (sugars e3 d14 e3, PS)”: for the setting “HepG2, 0.12 µM”, the target mRNA inhibition amounted to 61%.
The same measure, in the same setting: then “TCCCATTCTTTGAAAGCAAA (sugars e5 d10 e5, PS)”, with 31%.
In the case of “AAACCACTGTTGCTGAGCTC (sugars e5 d10 e5, PS)”, the target mRNA inhibition is 71% and 58% (HepG2, 2.5 µM); 84% and 73% (HepG2, 10 µM).
For the sequence “TCCAATGCACCTTGTATTAA (sugars e5 d10 e5, PS)”, the target mRNA inhibition by setting is: (HepG2, 2.5 µM) 72% and 52%; (HepG2, 10 µM) 92% and 83%.
“GCGATTCACTGAGGACCTCA (sugars e5 d10 e5, PS)”: the target mRNA inhibition reads like this: (HepG2, 2.5 µM) 74%; (HepG2, 10 µM) 86%.
In the case of “AGCATTGCCACTCCCATTCT (sugars e3 d14 e3, PS)”, the target mRNA inhibition (HepG2, 0.12 µM) is 67%.
The same measure, in the same setting: to “AGGTAAGGCCGTATGCCTGG (sugars e2 d13 e5, PS)” belongs 63%.
“AGGCATGGAGCTCAGAGACT (sugars e5 d10 e5, PS)”: the target mRNA inhibition by setting is: (HepG2, 0.12 µM) 69% and 83%; (HepG2, 2.5 µM) 39%; (HepG2, 10 µM) 84%; (HepG2, 20 µM) 51%.
“AAAGGAGTTTGTGTTTCCCA (sugars e5 d10 e5, PS)” yielded a target mRNA inhibition (HepG2, 2.5 µM) of 73% and a target mRNA inhibition (HepG2, 10 µM) of 91%.
Consider “GAGCTTCACCAGGGCCTCCA (sugars e5 d10 e5, PS)”, for which the target mRNA inhibition (HepG2, 0.12 µM) was 52%; the target mRNA inhibition (HepG2, 10 µM) was 74% and 79%; the target mRNA inhibition (HepG2, 20 µM) was 83% and 88%.
“TCCTGGTCCCAGTACTTTCT (sugars e5 d10 e5, PS)”: the target mRNA inhibition is, setting by setting: (HepG2, 2.5 µM) 71% and 73%; (HepG2, 10 µM) 91% and 92%.
“CATTGCTCAGATCACTCTGC (sugars e5 d10 e5, PS)”: the target mRNA inhibition runs as follows: (HepG2, 2.5 µM) 88%; (HepG2, 10 µM) 74%.
As to “CAGGACTTGGTACCTGATTC (sugars e5 d10 e5, PS)”, the target mRNA inhibition (HepG2, 0.12 µM) was determined as 35%.
The same measure, in the same setting: to “CCTGGACAAGTCCTGCCCAT (sugars e3 d14 e3, PS)” belongs 70%.
For “TGTGTGACCTTGGGCAAGTT (sugars e5 d10 e5, PS)”, the target mRNA inhibition reads like this: (HepG2, 2.5 µM) 61% and 57%; (HepG2, 10 µM) 78% and 88%.
Take “CAGGACCCCGGAGTAGGCGG (sugars e2 d13 e5, PS)”: the target mRNA inhibition (HepG2, 0.12 µM) amounted to 76%.
Consider “TCACCAGGGCCTCCATGTAC (sugars e2 d13 e5, PS)”, for which, for the setting “HepG2, 0.12 µM”, the target mRNA inhibition stood at 3%.
“AGGCAAAGTAACATACCTGC (sugars e5 d10 e5, PS)”: the target mRNA inhibition is 71% and 74% (HepG2, 2.5 µM); 94% and 91% (HepG2, 10 µM).
Take “GCAGATCTTCATTACATGAT (sugars e5 d10 e5, PS)”: for the setting “HepG2, 10 µM”, the target mRNA inhibition was 86% and 91%.
With “GTAGACTCTCCATGAGCCTA (sugars e5 d10 e5, PS)”, the target mRNA inhibition by setting is: (HepG2, 2.5 µM) 49%; (HepG2, 10 µM) 88%.
For the setting “HepG2, 0.12 µM”, “AAAGATATAGTTCCTGGTGG (sugars e5 d10 e5, PS)” had a target mRNA inhibition of 54%.
In the case of “AGAAAAAGCAACCAAAGCAC (sugars e5 d10 e5, PS)”, the target mRNA inhibition runs as follows: (HepG2, 2.5 µM) 19%; (HepG2, 10 µM) 82%.
Regarding “GACAATGAGTAAGGGTATTC (sugars e5 d10 e5, PS)”, the target mRNA inhibition (HepG2, 2.5 µM) was 48% and the target mRNA inhibition (HepG2, 10 µM) worked out at 83%.
Sequence “TAGCCAGGTAAGGCCGTATG (sugars e2 d13 e5, PS)” showed a target mRNA inhibition (HepG2, 0.12 µM) of 51%.
Regarding “ATGCCCTTGCTGTAGGACCC (sugars e5 d10 e5, PS)”, the target mRNA inhibition is 79% and 73% (HepG2, 2.5 µM); 90% (HepG2, 10 µM).
The sequence “GATAGCATTGCCACTCCCAT (sugars e3 d14 e3, PS)” came in with a target mRNA inhibition (HepG2, 0.12 µM) of 75%.
On the same count and under the same terms, then “TTGGAGTAGGGCACCAGCCC (sugars e5 d10 e5, PS)”, with 16%.
“GGCATGCTTCCTCCCAC (sugars e3 d10 e4, PS)”: the target mRNA inhibition runs as follows: (HepG2, 2.5 µM) 56%; (HepG2, 10 µM) 56%.
In the case of “GTATCCAAAGATATAGTTCC (sugars e5 d10 e5, PS)”, where the note is “HepG2, 0.12 µM”, the target mRNA inhibition turned out to be 8%.
